Measurements published in patent US10227331B2 (priority 2015, dated 2019).

Assays:
[1] = tested on: P. aeruginosa expressing IMP-1, efflux+ (MB9798); format: cell-based, Pseudomonas aeruginosa; settings: for P. aeruginosa expressing IMP-1, efflux+ (MB9798) MITC95: imipenem at 2 μg/mL, in the presence of a class A, C, D serine β-lactamase inhibitor closely related to relebactam; for Efflux ratio: ratio MITC95 PA_9798/MITC95 PA_9799
Description: (§1) The strain background is Pseudomonas aeruginosa PAO1.

VIM-1 = VIM-1 (Pseudomonas aeruginosa (strain ATCC 15692 / DSM 22644 / CIP 104116 / JCM 14847 / LMG 12228 / 1C / PRS 101 / PAO1), UniProt A0A0F7KYQ8); assay: biochemical; settings: CCF2-FA substrate, 2 hours at 25° C
Outline: (§2)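 Inhibitor was mixed with the metallo-β-lactamase and CCF2-FA. After 2 hours at 25° C, fluorescence of the coumarin–fluorescein cephalosporin substrate was read. IC50 was calculated with a 4-parameter fit.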

[2] = tested on: Escherichia coli expressing NDM-1 (CLB30005, CLB30016); format: cell-based; settings: NDM-1 (CLB30016), with imipenem 1 μg/ml, 95% inhibition of bacterial growth
Outline: (§3)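 Colonies from overnight 35 °C blood-agar cultures were suspended in saline, diluted 1:100 into 1.1× CAMHB and exposed to test compound with or without imipenem at 1 μg/ml. After 22–24 h at 35 °C, absorbance was read to find the concentration restoring imipenem susceptibility.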

[3] = tested on: Serratia marcescens expressing IMP-1 (CL5741); format: cell-based; settings: IMP-1 (CL5741), with imipenem 1 μg/ml, 95% inhibition of bacterial growth
Outline: as §3

[4] = tested on: Klebsiella pneumoniae expressing VIM-1 (IHMA599644); format: cell-based; settings: VIM-1 (IHMA599644), with imipenem 1 μg/ml, 95% inhibition of bacterial growth
Outline: as §3

IMP-1 = IMP-1 (Serratia marcescens, UniProt P52699); assay: biochemical; format: biochemical; settings: CCF2-FA substrate, 2 hours at 25° C; read-out: IMP-1 IC50
IMP-1, sequence (P52699 whole entry, looked up, species assumed): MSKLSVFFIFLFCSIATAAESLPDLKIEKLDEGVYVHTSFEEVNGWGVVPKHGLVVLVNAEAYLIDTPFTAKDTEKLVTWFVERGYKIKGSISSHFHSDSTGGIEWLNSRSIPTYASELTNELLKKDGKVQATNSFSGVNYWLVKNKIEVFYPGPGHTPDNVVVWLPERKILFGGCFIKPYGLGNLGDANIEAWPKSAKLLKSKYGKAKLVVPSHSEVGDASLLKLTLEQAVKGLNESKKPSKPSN
Outline: as §2

NDM-1 = NDM-1 (Klebsiella pneumoniae, UniProt C7C422); assay: biochemical; format: biochemical; settings: CCF2-FA substrate, 2 hours at 25° C; read-out: NDM-1 IC50
NDM-1, sequence (C7C422 whole entry, looked up, species assumed): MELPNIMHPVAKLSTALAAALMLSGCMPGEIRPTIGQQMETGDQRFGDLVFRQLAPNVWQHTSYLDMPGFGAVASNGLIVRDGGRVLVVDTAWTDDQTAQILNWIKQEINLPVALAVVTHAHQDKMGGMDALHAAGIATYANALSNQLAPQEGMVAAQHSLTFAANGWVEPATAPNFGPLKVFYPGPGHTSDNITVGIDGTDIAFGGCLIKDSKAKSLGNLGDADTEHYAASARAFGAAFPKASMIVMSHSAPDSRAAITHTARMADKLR
Outline: as §2

[5] = tested on: P. aeruginosa expressing IMP-1, efflux− (MB9799); assay: Efflux: concentration of MBL inhibitor which restores susceptibility to imipenem; format: cell-based, Pseudomonas aeruginosa; settings: imipenem at 2 μg/mL, in the presence of a class A, C, D serine β-lactamase inhibitor closely related to relebactam
Description: as §1

| SMILES | P. aeruginosa expressing IMP-1, efflux+ (MB9798) MITC95 [1] [µM] | Efflux ratio [1] | IC50 (VIM-1) [nM] | Escherichia coli MITC95 [2] [µM] | Serratia marcescens MITC95 [3] [µM] | Klebsiella pneumoniae MITC95 [4] [µM] | IC50 (IMP-1) [nM] | IC50 (NDM-1) [nM] | P. aeruginosa expressing IMP-1, efflux− (MB9799) MITC95 [5] [µM] |
| --- | --- | --- | --- | --- | --- | --- | --- | --- | --- |
| NCCS(=O)(=O)c1ccc(-c2cccc(NC(=O)CN)c2)c(-c2nn[nH]n2)c1S(N)(=O)=O [Example 333, 2-Amino-N-(4′-((2-aminoethyl)sulfonyl)-3′-sulfamoyl-2′-(2H-tetrazol-5-yl)-[1,1′-biphenyl]-3-yl)acetamide] | 6.25 | 8.00 | 0.312 | 0.3906 | 1.563 | 1.563 | 10.3 | 3.44 | 0.7813 |
| NCCS(=O)(=O)c1ccc(-c2cnc(N)c(C(N)=O)c2)c(-c2nn[nH]n2)c1S(N)(=O)=O [Example 335, 2-Amino-5-(4-((2-aminoethyl)sulfonyl)-3-sulfamoyl-2-(2H-tetrazol-5-yl)phenyl)nicotinamide] | 12.5 | 8.00 | 1.23 | 1.563 | 1.563 | 3.125 | 8.9 | 3.22 | 1.563 |
| NCCS(=O)(=O)c1ccc(-c2cnc(N)c(C(=O)N[C@H]3CCNC3)c2)c(-c2nn[nH]n2)c1S(N)(=O)=O [Example 336, (S)-2-Amino-5-(4-((2-aminoethyl)sulfonyl)-3-sulfamoyl-2-(2H-tetrazol-5-yl)phenyl)-N-(pyrrolidin-3-yl)nicotinamide] | 12.5 | 8.00 | 3.57 | 0.7813 | 1.563 | 3.125 | 9.51 | 6.3 | 1.563 |
| NCCS(=O)(=O)c1ccc(-c2cccc(NC(=O)CN)c2NC(=O)CN)c(-c2nn[nH]n2)c1S(N)(=O)=O [Example 338, N,N′-(4′-((2-Aminoethyl)sulfonyl)-3′-sulfamoyl-2′-(2H-tetrazol-5-yl)-[1,1′-biphenyl]-2,3-diyl)bis(2-aminoacetamide)] | 25 | 4.00 | 15.1 | 1.563 | 3.125 | 6.25 | 74.9 | 20.4 | 6.25 |
| NCCS(=O)(=O)c1ccc(-c2ccccc2N)c(-c2nn[nH]n2)c1S(N)(=O)=O [Example 339, 2′-Amino-4-((2-aminoethyl)sulfonyl)-2-(2H-tetrazol-5-yl)-[1,1′-biphenyl]-3-sulfonamide] | 6.25 | 4.00 | 1.78 | 1.563 | 3.125 | 3.125 | 3.42 | 2.52 | 1.563 |
| NCCS(=O)(=O)c1ccc(-c2ccccc2NC(=O)CN)c(-c2nn[nH]n2)c1S(N)(=O)=O [Example 340, 2-Amino-N-(4′-((2-aminoethyl)sulfonyl)-3′-sulfamoyl-2′-(2H-tetrazol-5-yl)-[1,1′-biphenyl]-2-yl)acetamide] | 12.5 | 4.00 | 8.16 | 1.563 | 3.125 | 3.125 | 107 | 24.8 | 3.125 |
| COC(=O)c1cccc(-c2ccc(S(=O)(=O)CCN)c(S(N)(=O)=O)c2-c2nn[nH]n2)c1NCCN [Example 341, Methyl 2-((2-aminoethyl)amino)-4′-((2-aminoethyl)sulfonyl)-3′-sulfamoyl-2′-(2H-tetrazol-5-yl)-[1,1′-biphenyl]-3-carboxylate] | 25 | 15.99 | 4.46 | 1.563 | 3.125 | 3.125 | 16.1 | 4.01 | 1.563 |
| NCCNC(=O)c1ccccc1-c1ccc(S(=O)(=O)CCN)c(S(N)(=O)=O)c1-c1nn[nH]n1 [Example 342, N-(2-Aminoethyl)-4′-((2-aminoethyl)sulfonyl)-3′-sulfamoyl-2′-(2H-tetrazol-5-yl)-[1,1′-biphenyl]-2-carboxamide] | 12.5 | 4.00 | 2.84 | 1.563 | 3.125 | 1.563 | 34.2 | 15.3 | 3.125 |
| NS(=O)(=O)c1c(S(=O)(=O)C2CNC2)ccc(-c2ccnc(N3CCNC3=O)c2)c1-c1nnn[nH]1 [Example 343, 6-(Azetidin-3-ylsulfonyl)-3-(2-(2-oxoimidazolidin-1-yl)pyridin-4-yl)-2-(1H-tetrazol-5-yl)benzenesulfonamide] | 25 | 15.99 | 0.198 | 3.125 | 3.125 | 6.25 | 1.89 | 0.51 | 1.563 |
| Nc1nnc(-c2cccc(-c3ccc(S(=O)(=O)C4CNC4)c(S(N)(=O)=O)c3-c3nnn[nH]3)c2)o1 [Example 344, 3′-(5-Amino-1,3,4-oxadiazol-2-yl)-4-(azetidin-3-ylsulfonyl)-2-(1H-tetrazol-5-yl)-[1,1′-biphenyl]-3-sulfonamide] | 25 | 15.99 | 0.268 | 3.125 | 3.125 | 6.25 | 1.7 | 0.47 | 1.563 |
| NCCS(=O)(=O)c1ccc(-c2cccc(-n3ccnc3)c2)c(-c2nnn[nH]2)c1S(N)(=O)=O [Example 345, 4-((2-Aminoethyl)sulfonyl)-3′-(1H-imidazol-1-yl)-2-(1H-tetrazol-5-yl)-[1,1′-biphenyl]-3-sulfonamide] | 25 | 32.00 | 0.434 | 0.7813 | 1.563 | 3.125 | 0.857 | 1.96 | 0.7813 |
| NCCS(=O)(=O)c1ccc(-c2cccc(-c3c[nH]c(N)n3)c2)c(-c2nnn[nH]2)c1S(N)(=O)=O [Example 346, 3′-(2-Amino-1H-imidazol-4-yl)-4-((2-aminoethyl)sulfonyl)-2-(1H-tetrazol-5-yl)-[1,1′-biphenyl]-3-sulfonamide] | 6.25 | 8.00 | 0.931 | 0.3906 | 1.563 | 1.563 | 1.97 | 0.518 | 0.7813 |
| NCCS(=O)(=O)c1ccc(-c2cccc3c2NC(=O)C3O)c(-c2nnn[nH]2)c1S(N)(=O)=O (stereo not drawn) [Example 347, 6-((2-Aminoethyl)sulfonyl)-3-(3-hydroxy-2-oxoindolin-7-yl)-2-(1H-tetrazol-5-yl)benzenesulfonamide] | 12.5 | 4.00 | 0.933 | 3.125 | 1.563 | 6.25 | 1.34 | 1.73 | 3.125 |
| C[C@@H](N)CS(=O)(=O)c1ccc(-c2cccc3[nH]c(C(=O)O)nc23)c(-c2nn[nH]n2)c1S(N)(=O)=O [Example 348, Ammonium (R)-4-(4-((2-aminopropyl)sulfonyl)-3-sulfamoyl-2-(2H-tetrazol-5-yl)phenyl)-1H-benzo[d]imidazole-2-carboxylate] | 25 | 8.00 | 0.478 | 3.125 | 3.125 | 6.25 | 0.847 | 0.163 | 3.125 |
